In paper PMC10447463, “Data-mining unveils structure–property–activity correlation of viral infectivity enhancing self-assembling peptides” (Nature Communications, 2023):
Read-outs that look alike come from different tables or passages of the source.

Experiments:
[1] = assay type: physicochemical; set-up: key to Fibril / Fibril Formation / TEM 2cat / Fibril: 1 = fibrils present; 0 non-fibrillar structures; details: for Fibril / Fibril / Fibril Formation: TEM; for Fibril / Fibril Formation: 1 mg/mL, uranyl acetate stain, qualitative
[2] = assay type: physicochemical; details: for ThT Cat. / ThT-Fluorescence (categorical): ThT-active if fluorescence at least twice the control
Summary of the method: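 Fibrils (1 mg/mL solution) were mixed with 50 µM ThT in PBS for 15 min at RT, and fluorescence was read at λex 440/λem 488 nm against a PBS blank, as a triplicate mean ± SD. Zeta potential came from electrophoretic mobility (Smoluchowski) after 1 d aggregation at 1 mg/mL in PBS pH 7.4, diluted into 1 mM KCl.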

[3] = β-sheet content by ATR-FT-IR; assay type: physicochemical; details: Fig. S7 panel A; β-sheet content by ATR-FT-IR
Summary of the method: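 Spectra: 64 scans, 2 cm^-1, lyophilized PNF (1 mg/mL source). CR = 100 − 100 × filtrate/original fluorescamine signal; triplicate, ± SD.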

[4] = FigS12 panel A, fibril category by TEM
[5] = 1 = fibrils present, 0 = non-fibrillar
[6] = 1 = fibrils present, 0 = non-fibrillar structures
[7] = ThT fluorescence category, 1 if Rel. ThT >2
[8] = category: fibrils present or non-fibrillar

Row | Substance | TEM 2cat ([1]; Fig S10 panel D) | TEM 2cat [1, 4] | Fibril ([1]; FigS12 panel B) | Fibril / Fibril Formation [1] | Fibril [1, 5] | Fibril [1, 6] | Tht category (> 2 to blank = +) ([2]; Fig S10 panel D) | Tht category (> 2 to blank = +) ([2]; FigS12 panel A) | ThT Cat, ([2]; FigS12 panel B) | ThT Cat, ([2]; ThT category, 1 if Rel. ThT >2) | ThT Cat. [2, 7] | ThT Cat. / ThT-Fluorescence (categorical) [2] | b -sheet / % [3] [%] | TEM 2cat [1, 8] | ThT Cat. ([2]; ThT category, 1 if Rel. ThT >2)
1 | CEFEFQF | 1 | 1 | 1 | 1 | 1 | 1 | 0 (ThT-inactive (N-Fold <2)) | 0 (ThT-inactive (N-Fold <2)) | 0 (ThT-inactive (N-Fold <2)) | 0 (ThT-inactive (N-Fold <2)) | 0 (ThT-inactive (N-Fold <2)) | 0 (ThT-inactive (N-Fold <2)) | 53 | – | –
2 | CKFKFQFNMW | 1 | – | – | 1 | 1 | 1 | 1 (ThT. Cat is 1, if Rel. ThT >2) | – | – | 1 (ThT. Cat is 1, if Rel. ThT >2) | 1 (ThT. Cat is 1, if Rel. ThT >2) | 1 (ThT. Cat is 1, if Rel. ThT >2) | 47.7253 | 1 | –
3 | CKIKIQIII | 1 | – | – | 1 | 1 | 1 | 1 (ThT. Cat is 1, if Rel. ThT >2) | – | – | 1 (ThT. Cat is 1, if Rel. ThT >2) | – | 1 (ThT. Cat is 1, if Rel. ThT >2) | 36.7 | 1 | 1 (ThT. Cat is 1, if Rel. ThT >2)
4 | CKWKWQW | 1 | – | – | 1 | 1 | 1 | 0 (ThT-inactive (N-Fold <2)) | – | – | 0 (ThT-inactive (N-Fold <2)) | 0 (ThT-inactive (N-Fold <2)) | 0 (ThT-inactive (N-Fold <2)) | 34.2 | 1 | –
5 | CKYKYQY | 0 | 0 | 0 | 0 | 0 | 0 | 1 (ThT. Cat is 1, if Rel. ThT >2) | 1 (ThT. Cat is 1, if Rel. ThT >2) | 1 (ThT. Cat is 1, if Rel. ThT >2) | 1 (ThT. Cat is 1, if Rel. ThT >2) | 1 (ThT. Cat is 1, if Rel. ThT >2) | 1 (ThT. Cat is 1, if Rel. ThT >2) | 49.12 | – | –
6 | EFEFQF | 0 | 0 | 0 | 0 | 0 | 0 | 1 (ThT. Cat is 1, if Rel. ThT >2) | 1 (ThT. Cat is 1, if Rel. ThT >2) | 1 (ThT. Cat is 1, if Rel. ThT >2) | 1 (ThT. Cat is 1, if Rel. ThT >2) | 1 (ThT. Cat is 1, if Rel. ThT >2) | 1 (ThT. Cat is 1, if Rel. ThT >2) | 44.93 | – | –
7 | EIEIEIEI | 1 | 1 | 1 | 1 | 1 | 1 | 0 (ThT-inactive (N-Fold <2)) | 0 (ThT-inactive (N-Fold <2)) | 0 (ThT-inactive (N-Fold <2)) | 0 (ThT-inactive (N-Fold <2)) | 0 (ThT-inactive (N-Fold <2)) | 0 (ThT-inactive (N-Fold <2)) | 62.61 | – | –
8 | FDPFDPFDP | 0 | 0 | 0 | 0 | 0 | 0 | 0 (ThT-inactive (N-Fold <2)) | 0 (ThT-inactive (N-Fold <2)) | 0 (ThT-inactive (N-Fold <2)) | 0 (ThT-inactive (N-Fold <2)) | – | 0 (ThT-inactive (N-Fold <2)) | 48.89 | – | 0 (ThT-inactive (N-Fold <2))
9 | FKFDKFKFDK | 0 | 0 | 0 | 0 | 0 | 0 | 0 (ThT-inactive (N-Fold <2)) | 0 (ThT-inactive (N-Fold <2)) | 0 (ThT-inactive (N-Fold <2)) | 0 (ThT-inactive (N-Fold <2)) | – | 0 (ThT-inactive (N-Fold <2)) | 46.64 | – | 0 (ThT-inactive (N-Fold <2))
10 | HGEHGE | 0 | 0 | 0 | 0 | 0 | 0 | 0 (ThT-inactive (N-Fold <2)) | 0 (ThT-inactive (N-Fold <2)) | 0 (ThT-inactive (N-Fold <2)) | 0 (ThT-inactive (N-Fold <2)) | – | 0 (ThT-inactive (N-Fold <2)) | 9.5428 | – | 0 (ThT-inactive (N-Fold <2))
11 | HHHHEIEIEIEI | 0 | 0 | 0 | 0 | 0 | 0 | 1 (ThT. Cat is 1, if Rel. ThT >2) | 1 (ThT. Cat is 1, if Rel. ThT >2) | 1 (ThT. Cat is 1, if Rel. ThT >2) | 1 (ThT. Cat is 1, if Rel. ThT >2) | 1 (ThT. Cat is 1, if Rel. ThT >2) | 1 (ThT. Cat is 1, if Rel. ThT >2) | 48.37 | – | –
12 | KAKQAANMWQ | 0 | 0 | 0 | 0 | 0 | 0 | 0 (ThT-inactive (N-Fold <2)) | 0 (ThT-inactive (N-Fold <2)) | 0 (ThT-inactive (N-Fold <2)) | 0 (ThT-inactive (N-Fold <2)) | – | 0 (ThT-inactive (N-Fold <2)) | 10.94 | – | 0 (ThT-inactive (N-Fold <2))
13 | KFKQFFNMWQ | 0 | 0 | 0 | 0 | 0 | 0 | 0 (ThT-inactive (N-Fold <2)) | 0 (ThT-inactive (N-Fold <2)) | 0 (ThT-inactive (N-Fold <2)) | 0 (ThT-inactive (N-Fold <2)) | – | 0 (ThT-inactive (N-Fold <2)) | 32.75 | – | 0 (ThT-inactive (N-Fold <2))
